The source of these data is patent US8796001B2, “Metalloenzyme inhibitor compounds” (Viamet Pharmaceuticals, Inc., priority 2011, dated 2014).

This experiment relates to Puccinia recondita tritici = Puccinia triticina (PUCCRT). In words: Fungicidal activity vs. leaf rust on wheat plants. The settings on record: wheat (Yuma) sprayed at 50 ppm, inoculated the following day, rated 7-9 days later, read-out: Puccinia Rating (% Disease Control @ 50 ppm). It is filed as in vivo. From the text:
D. Evaluation of Fungicidal Activity vs. Leaf Rust (Causal Agent Puccinia Recondita Tritici=Puccinia Triticina; Bayer Code PUCCRT)
Each pot contained 3-8 seedlings. These plants were sprayed until wet with the formulated test compounds. The compounds were formulated at 50 ppm in 10 vol. % acetone plus 90 vol. % Triton X water (deionized water 99.99 wt %+0.01 wt % Triton X100), giving a “formulated test compound.” Formulated test compounds were applied to plants using a turn table sprayer fitted with two opposing air atomization nozzles which delivered approximately 1500 L/ha of spray volume. On the following day, the leaves were inoculated with an aqueous spore suspension of Puccinia recondita tritici and the plants were kept in high humidity overnight to permit spores to germinate and infect the leaf. The plants were then transferred to a greenhouse until disease developed on untreated control plants. Disease severity was evaluated 7-9 days later, depending on the speed of disease development.
In each case of Table 3, the Puccinia rating scale is as follows: […]
Take `N#Cc1ccc(Oc2ccc(C(F)(F)C(O)(Cn3cnnn3)c3ccc(F)cc3F)nc2)cc1` (stereo not shown) [Compound 5, 4-(6-(2-(2,4-Difluorophenyl)-1,1-difluoro-2-hydroxy-3-(1H-tetrazol-1-yl)propyl)pyridin-3-yloxy)benzonitrile]: the pest or weed control at 50 ppm was 80 to 100%.

Consider `OC(Cn1cnnn1)(c1ccc(F)cc1F)C(F)(F)c1ccc(OCc2ccc(C(F)(F)F)nc2)cn1` (stereo not shown) [Compound 115, 2-(2,4-difluorophenyl)-1,1-difluoro-3-(1H-tetrazol-1-yl)-1-(5-((6-(trifluoromethyl)pyridin-3-yl)methoxy)pyridin-2-yl)propan-2-ol], for which the pest or weed control at 50 ppm was 80 to 100%. As for `OC(Cn1cnnn1)(c1ccc(F)cc1F)C(F)(F)c1ccc(Oc2ccc(C(F)(F)F)cc2)cn1` (stereo not shown) [Compound 75, 2-(2,4-Difluorophenyl)-1,1-difluoro-3-(1H-tetrazol-1-yl)-1-(5-(4-(trifluoromethyl)phenoxy)pyridin-2-yl)propan-2-ol], the pest or weed control at 50 ppm is 80 to 100%. Take `N#Cc1ccc(COc2ccc(C(F)(F)C(O)(Cn3cnnn3)c3ccc(Cl)cc3F)nc2)nc1` (stereo not shown) [Compound 61, 6-(((6-(2-(4-Chloro-2-fluorophenyl)-1,1-difluoro-2-hydroxy-3-(1H-tetrazol-1-yl)propyl)pyridin-3-yl)oxy)methyl)nicotinonitrile]: the pest or weed control at 50 ppm is 80 to 100%. `N#Cc1ncc(Oc2ccc(C(F)(F)C(O)(Cn3cnnn3)c3ccc(F)cc3F)nc2)cn1` (stereo not shown) [Compound 100, 5-((6-(2-(2,4-difluorophenyl)-1,1-difluoro-2-hydroxy-3-(1H-tetrazol-1-yl)propyl)pyridin-3-yl)oxy)pyrimidine-2-carbonitrile]: the pest or weed control at 50 ppm fell in the range of 60 to 79%.

With `OC(Cn1cnnn1)(c1ccc(F)cc1F)C(F)(F)c1ccc(OCc2ccc(Cl)nc2)cn1` (stereo not shown) [Compound 116, 1-(5-((6-chloropyridin-3-yl)methoxy)pyridin-2-yl)-2-(2,4-difluorophenyl)-1,1-difluoro-3-(1H-tetrazol-1-yl)propan-2-ol], the pest or weed control at 50 ppm lay in the range of 80 to 100%. Take `OC(Cn1cnnn1)(c1ccc(F)cc1F)C(F)(F)c1ccc(OCc2ccc(Cl)cn2)cn1` (stereo not shown) [Compound 113, 1-(5-((5-chloropyridin-2-yl)methoxy)pyridin-2-yl)-2-(2,4-difluorophenyl)-1,1-difluoro-3-(1H-tetrazol-1-yl)propan-2-ol]: the pest or weed control at 50 ppm was 80 to 100%. With `COc1cccc(COc2ccc(C(F)(F)C(O)(Cn3cnnn3)c3ccc(F)cc3F)nc2)c1` (stereo not shown) [Compound 34, 2-(2,4-Difluorophenyl)-1,1-difluoro-1-(5-((3-methoxybenzyl)oxy)pyridin-2-yl)-3-(1H-tetrazol-1-yl)propan-2-ol], the pest or weed control at 50 ppm was 80 to 100%. Consider `OC(Cn1cnnn1)(c1ccc(F)cc1F)C(F)(F)c1ccc(OCC(F)(F)F)cn1` (stereo not shown) [Compound 12, 2-(2,4-Difluorophenyl)-1,1-difluoro-3-(1H-tetrazol-1-yl)-1-(5-(2,2,2-trifluoroethoxy)pyridin-2-yl)propan-2-ol], for which the pest or weed control at 50 ppm lay in the range of 80 to 100%. Turning to `OC(Cn1cnnn1)(c1ccc(F)cc1F)C(F)(F)c1ccc(Oc2ccc(OC(F)(F)F)cc2)cn1` (stereo not shown) [Compound 76, 2-(2,4-Difluorophenyl)-1,1-difluoro-3-(1H-tetrazol-1-yl)-1-(5-(4-(trifluoromethoxy)phenoxy)pyridin-2-yl)propan-2-ol], the pest or weed control at 50 ppm was in the range of 80 to 100%.

`N#Cc1ccc(Oc2ccc(C(F)(F)C(O)(Cn3cnnn3)c3ccc(Cl)cc3F)nc2)cc1` (stereo not shown) [Compound 79, 4-((6-(2-(4-Chloro-2-fluorophenyl)-1,1-difluoro-2-hydroxy-3-(1H-tetrazol-1-yl)propyl)pyridin-3-yl)oxy)benzonitrile]: the pest or weed control at 50 ppm was in the range of 80 to 100%. For `N#Cc1ccc(COc2ccc(C(F)(F)C(O)(Cn3cnnn3)c3ccc(F)cc3F)nc2)nc1` (stereo not shown) [Compound 50, 6-(((6-(2-(2,4-Difluorophenyl)-1,1-difluoro-2-hydroxy-3-(1H-tetrazol-1-yl)propyl)pyridin-3-yl)oxy)methyl)nicotinonitrile] the value was 80 to 100%; for `OC(Cn1cnnn1)(c1ccc(F)cc1F)C(F)(F)c1ccc(Oc2cccc(Cl)c2)cn1` (stereo not shown) [Compound 84, 1-(5-(3-Chlorophenoxy)pyridin-2-yl)-2-(2,4-difluorophenyl)-1,1-difluoro-3-(1H-tetrazol-1-yl)propan-2-ol], 80 to 100%. Regarding `N#Cc1ccc(Oc2ccc(C(F)(F)C(O)(Cn3cnnn3)c3ccc(Cl)cc3F)nc2)cc1F` (stereo not shown) [Compound 81, 4-((6-(2-(4-Chloro-2-fluorophenyl)-1,1-difluoro-2-hydroxy-3-(1H-tetrazol-1-yl)propyl)pyridin-3-yl)oxy)-2-fluorobenzonitrile], the pest or weed control at 50 ppm was 80 to 100%. Consider `OC(Cn1cnnn1)(c1ccc(F)cc1F)C(F)(F)c1ccc(OCc2ccc(Cl)cc2F)cn1` (stereo not shown) [Compound 1, 1-(5-(4-Chloro-2-fluorobenzyloxy)pyridin-2-yl)-2-(2,4-difluorophenyl)-1,1-difluoro-3-(1H-tetrazol-1-yl)propan-2-ol], for which the pest or weed control at 50 ppm lay in the range of 80 to 100%. As to `OC(Cn1cnnn1)(c1ccc(F)cc1F)C(F)(F)c1ccc(Oc2ncccn2)cn1` (stereo not shown) [Compound 97, 2-(2,4-difluorophenyl)-1,1-difluoro-1-(5-(pyrimidin-2-yloxy)pyridin-2-yl)-3-(1H-tetrazol-1-yl)propan-2-ol], the pest or weed control at 50 ppm was 80 to 100%. In the case of `OC(Cn1cnnn1)(c1ccc(Cl)cc1F)C(F)(F)c1ccc(OCC(F)(F)F)cn1` (stereo not shown) [Compound 71, 2-(4-Chloro-2-fluorophenyl)-1,1-difluoro-3-(1H-tetrazol-1-yl)-1-(5-(2,2,2-trifluoroethoxy)pyridin-2-yl)propan-2-ol], the pest or weed control at 50 ppm lay within 80 to 100%.

With `OC(Cn1cnnn1)(c1ccc(F)cc1F)C(F)(F)c1ccc(Oc2ncc(C(F)(F)F)cn2)cn1` (stereo not shown) [Compound 105, 2-(2,4-difluorophenyl)-1,1-difluoro-3-(1H-tetrazol-1-yl)-1-(5-((5-(trifluoromethyl)pyrimidin-2-yl)oxy)pyridin-2-yl)propan-2-ol], the pest or weed control at 50 ppm lay within 80 to 100%. In the case of `OC(Cn1cnnn1)(c1ccc(F)cc1F)C(F)(F)c1ccc(Oc2ccccc2F)cn1` (stereo not shown) [Compound 88, 2-(2,4-Difluorophenyl)-1,1-difluoro-1-(5-(2-fluorophenoxy)pyridin-2-yl)-3-(1H-tetrazol-1-yl)propan-2-ol], the pest or weed control at 50 ppm is 80 to 100%. Regarding `OC(Cn1cnnn1)(c1ccc(F)cc1F)C(F)(F)c1ccc(Oc2ccccc2)cn1` (stereo not shown) [Compound 11, 2-(2,4-Difluorophenyl)-1,1-difluoro-1-(5-phenoxypyridin-2-yl)-3-(1H-tetrazol-1-yl)propan-2-ol], the pest or weed control at 50 ppm was 80 to 100%. In the case of `OC(Cn1cnnn1)(c1ccc(F)cc1F)C(F)(F)c1ccc(OCc2ccncc2)cn1` (stereo not shown) [Compound 118, 2-(2,4-difluorophenyl)-1,1-difluoro-1-(5-(pyridin-4-ylmethoxy)pyridin-2-yl)-3-(1H-tetrazol-1-yl)propan-2-ol], the pest or weed control at 50 ppm was less than 40%. Consider `OC(Cn1cnnn1)(c1ccc(F)cc1F)C(F)(F)c1ccc(OCc2cccs2)cn1` (stereo not shown) [Compound 49, 2-(2,4-Difluorophenyl)-1,1-difluoro-3-(1H-tetrazol-1-yl)-1-(5-(thiophen-2-ylmethoxy)pyridin-2-yl)propan-2-ol], for which the pest or weed control at 50 ppm lay in the range of 80 to 100%.
